Assay results: ChEMBL document CHEMBL1201862, “PubChem BioAssay data set” (2004)
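Dose response: 5 concentrations. Exposure: 48 h. Format: 96-well plates. Endpoint: linear interpolation; highest concentration if not reached. Here, GI50 denotes the concentration required for 50% inhibition of growth.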 Calls of active or inactive are those of the source. Cut-off read from the data, not from the text of the source: active = GI50 up to about 1.1 µM and inactive = higher.

Experiments:
Experiment in all cases: inhibition of tumour cell growth, NCI panel, 48 h
TK-10 = test system: TK-10
NCI-H23 = test system: NCI-H23
OVCAR-3 = test system: OVCAR-3
HCT-116 = test system: HCT-116
RPMI-8226 = test system: RPMI-8226
CCRF-CEM = test system: CCRF-CEM
KM12 = test system: KM12
SF-268 = test system: SF-268
K562 = test system: K562
HOP-62 = test system: HOP-62
SNB-75 = test system: SNB-75
OVCAR-4 = test system: OVCAR-4
OVCAR-5 = test system: OVCAR-5
SK-MEL-5 = test system: SK-MEL-5
U-251 = test system: U-251
MOLT-4 = test system: MOLT-4
HCC 2998 = test system: HCC 2998

Measured: GI50

COc1nc(NC2OC(COC(C)=O)C(OC(C)=O)C(OC(C)=O)C2OC(C)=O)c(-c2csc(N)n2)c(=O)n1C (stereo not given)
inactive: TK-10 > 100 µM | NCI-H23 66.1 µM | OVCAR-3 93.3 µM | HCT-116 43.8 µM | RPMI-8226 > 100 µM | CCRF-CEM > 100 µM | KM12 > 100 µM | SF-268 25.9 µM | K562 60.1 µM | HOP-62 29.6 µM | SNB-75 18.4 µM | OVCAR-4 19.4 µM | OVCAR-5 > 100 µM | SK-MEL-5 43.3 µM | U-251 61.5 µM | MOLT-4 > 100 µM

Cc1ccc(NC(=O)CCC(CC(=O)C(C)(C)C)=NNC(=O)C(=O)NN)cc1C
inactive: TK-10 > 100 µM | NCI-H23 > 100 µM | OVCAR-3 > 100 µM | RPMI-8226 > 100 µM | CCRF-CEM > 100 µM | KM12 > 100 µM | SF-268 > 100 µM | K562 > 100 µM | HOP-62 > 100 µM | HCC 2998 > 100 µM | SNB-75 > 100 µM | OVCAR-4 > 100 µM | OVCAR-5 > 100 µM | SK-MEL-5 > 100 µM | MOLT-4 > 100 µM

COc1ccc(/C=C/C(=O)c2sc(N)nc2C)cc1
inactive: TK-10 > 100 µM | NCI-H23 > 100 µM | OVCAR-3 41 µM | RPMI-8226 > 100 µM | CCRF-CEM > 100 µM | KM12 > 100 µM | SF-268 > 100 µM | K562 > 100 µM | HOP-62 > 100 µM | HCC 2998 > 100 µM | SNB-75 > 100 µM | OVCAR-5 > 100 µM | SK-MEL-5 > 100 µM | U-251 > 100 µM | MOLT-4 > 100 µM

COC(=O)C(C(=O)C(=O)Nc1nc2ccc([N+](=O)[O-])cc2s1)c1nc2ccc(Cl)cc2nc1O (stereo not given)
inactive: TK-10 > 100 µM | NCI-H23 > 100 µM | OVCAR-3 > 100 µM | HCT-116 > 100 µM | RPMI-8226 > 100 µM | CCRF-CEM > 100 µM | KM12 > 100 µM | SF-268 > 100 µM | K562 > 100 µM | HOP-62 > 100 µM | HCC 2998 > 100 µM | SNB-75 52 µM | OVCAR-4 > 100 µM | OVCAR-5 > 100 µM | SK-MEL-5 > 100 µM | U-251 94.8 µM | MOLT-4 > 100 µM

CCN(CC)CCn1c2ccccc2c(=O)c2c(OC)ccc(OC)c21
inactive: NCI-H23 > 100 µM | OVCAR-3 > 100 µM | HCT-116 37.9 µM | RPMI-8226 92.3 µM | CCRF-CEM 46.6 µM | KM12 56.9 µM | SF-268 55.8 µM | K562 35.3 µM | HOP-62 > 100 µM | OVCAR-4 > 100 µM | OVCAR-5 99.5 µM | U-251 65.6 µM | MOLT-4 36.8 µM

COc1cc2c(cc1OC)C(=O)N1CCCC1C(=O)S2 (stereo not given)
inactive: TK-10 > 100 µM | NCI-H23 > 100 µM | OVCAR-3 > 100 µM | HCT-116 > 100 µM | RPMI-8226 > 100 µM | CCRF-CEM > 100 µM | KM12 > 100 µM | SF-268 > 100 µM | K562 > 100 µM | HOP-62 > 100 µM | HCC 2998 > 100 µM | OVCAR-5 > 100 µM | SK-MEL-5 > 100 µM | U-251 > 100 µM | MOLT-4 > 100 µM

O=C(/C=C/c1ccc(Cl)c(Cl)c1)c1cccc2ccccc12
inactive: TK-10 16.8 µM | NCI-H23 8.17 µM | OVCAR-3 6.32 µM | HCT-116 3.23 µM | RPMI-8226 2.29 µM | CCRF-CEM 2.53 µM | KM12 4.4 µM | SF-268 4.52 µM | K562 3.17 µM | HOP-62 17 µM | HCC 2998 10.4 µM | SNB-75 3.51 µM | OVCAR-4 7.64 µM | OVCAR-5 13.8 µM | SK-MEL-5 19.1 µM | U-251 2.74 µM

CCC(CC)n1c(C)nc2c1C(=O)c1ccccc1C2=O
inactive: TK-10 35.9 µM | NCI-H23 21.5 µM | OVCAR-3 26 µM | HCT-116 19.3 µM | CCRF-CEM 42.6 µM | KM12 36.9 µM | SF-268 49.2 µM | K562 21.1 µM | HOP-62 33.4 µM | HCC 2998 77.4 µM | SNB-75 20.6 µM | OVCAR-4 40.7 µM | SK-MEL-5 15.7 µM | U-251 36.5 µM | MOLT-4 41.2 µM

CCCCCCCCCCCCn1[nH]c(C)c(C(=S)SCCCCCCCC)c1=O
inactive: TK-10 64.6 µM | NCI-H23 73.3 µM | OVCAR-3 34.8 µM | HCT-116 29.6 µM | CCRF-CEM 28.1 µM | KM12 70.1 µM | SF-268 > 72.6 µM | K562 40.3 µM | HOP-62 50.1 µM | HCC 2998 > 96.6 µM | SNB-75 > 100 µM | OVCAR-4 95.5 µM | OVCAR-5 > 100 µM | SK-MEL-5 49 µM | U-251 45 µM | MOLT-4 14 µM

O=C(N/C(=C\c1ccc(Oc2ccc(Cl)c(Cl)c2)cc1)c1nc2ccccc2[nH]1)c1ccccc1
inactive: TK-10 26.1 µM | NCI-H23 13.3 µM | OVCAR-3 17.3 µM | CCRF-CEM 17.1 µM | KM12 15.3 µM | SF-268 18.1 µM | K562 8.91 µM | HCC 2998 16.4 µM | OVCAR-4 16.6 µM | OVCAR-5 22.4 µM | SK-MEL-5 16.1 µM | U-251 14.1 µM | MOLT-4 18.7 µM

Cc1ccc(/N=N/c2ccc(N(CCC#N)CCC#N)cc2C)c(Br)c1
inactive: TK-10 16.7 µM | NCI-H23 21.3 µM | OVCAR-3 32.6 µM | RPMI-8226 4.33 µM | CCRF-CEM 5.85 µM | KM12 3.5 µM | SF-268 21.1 µM | K562 3.13 µM | HOP-62 16.6 µM | HCC 2998 5.28 µM | SNB-75 11.3 µM | OVCAR-4 20.4 µM | OVCAR-5 56 µM | SK-MEL-5 16.3 µM | U-251 19.1 µM | MOLT-4 7.5 µM

ClC(/N=N/c1ccccc1)=N/Nc1ccccc1
inactive: TK-10 21.3 µM | NCI-H23 > 100 µM | HCT-116 > 100 µM | CCRF-CEM > 100 µM | KM12 60.7 µM | SF-268 39.2 µM | K562 38.3 µM | HOP-62 > 100 µM | HCC 2998 41.8 µM | OVCAR-4 > 100 µM | OVCAR-5 > 100 µM | U-251 > 100 µM | MOLT-4 > 100 µM

O=C1CCC(=O)c2c1c(O)c1ccncc1c2O
inactive: TK-10 18.4 µM | NCI-H23 16.4 µM | OVCAR-3 2.88 µM | HCT-116 14.7 µM | RPMI-8226 17.5 µM | CCRF-CEM 14.8 µM | KM12 16.3 µM | K562 18.8 µM | HOP-62 30.9 µM | HCC 2998 15.4 µM | SNB-75 18.7 µM | OVCAR-4 12.9 µM | OVCAR-5 23 µM | SK-MEL-5 11.4 µM | U-251 23.9 µM | MOLT-4 18.2 µM

NC(=O)N/N=C(\CC1OC(=O)c2ccccc21)c1ccco1 (stereo not given)
inactive: TK-10 > 100 µM | NCI-H23 > 100 µM | OVCAR-3 > 100 µM | HCT-116 > 100 µM | CCRF-CEM > 100 µM | KM12 > 100 µM | SF-268 > 100 µM | K562 > 100 µM | HCC 2998 > 100 µM | SNB-75 > 100 µM | OVCAR-4 > 100 µM | OVCAR-5 > 100 µM | SK-MEL-5 > 100 µM | MOLT-4 > 100 µM

COC(=O)C1=NC(=S)NC(c2ccccc2)C1c1nc2ccccc2o1 (stereo not given)
inactive: TK-10 > 50 µM | NCI-H23 > 50 µM | OVCAR-3 > 50 µM | HCT-116 > 50 µM | RPMI-8226 > 50 µM | CCRF-CEM > 50 µM | KM12 > 50 µM | SF-268 > 50 µM | K562 > 50 µM | HOP-62 > 50 µM | HCC 2998 > 50 µM | OVCAR-4 > 50 µM | OVCAR-5 > 50 µM | U-251 > 50 µM | MOLT-4 > 50 µM

N/N=C(\Cc1ccccc1)NN=C(N)N
inactive: TK-10 > 100 µM | NCI-H23 > 100 µM | HCT-116 > 100 µM | RPMI-8226 > 100 µM | CCRF-CEM 26.5 µM | KM12 > 100 µM | SF-268 > 100 µM | K562 > 100 µM | HCC 2998 > 100 µM | SNB-75 > 100 µM | OVCAR-4 > 100 µM | OVCAR-5 > 100 µM | SK-MEL-5 > 100 µM | U-251 > 100 µM | MOLT-4 47.1 µM

CN(C(=O)C12C3C4C1C1C2C3C41C(N)=O)C(C)(C)C (stereo not given)
inactive: TK-10 > 100 µM | NCI-H23 > 100 µM | OVCAR-3 > 100 µM | HCT-116 > 100 µM | CCRF-CEM > 100 µM | KM12 > 100 µM | SF-268 > 100 µM | K562 > 100 µM | HCC 2998 > 100 µM | SNB-75 > 100 µM | OVCAR-4 > 100 µM | OVCAR-5 > 100 µM | SK-MEL-5 > 100 µM | MOLT-4 > 100 µM

O=C1OC(=O)c2c1c(-c1ccccc1)cn2-c1ccc(Cl)cc1
inactive: TK-10 > 100 µM | NCI-H23 > 100 µM | OVCAR-3 54.7 µM | HCT-116 > 100 µM | RPMI-8226 26.8 µM | CCRF-CEM 35.6 µM | KM12 86.1 µM | SF-268 > 100 µM | K562 2.22 µM | HOP-62 14.6 µM | HCC 2998 > 100 µM | SNB-75 > 100 µM | OVCAR-5 > 100 µM | SK-MEL-5 3.38 µM | U-251 87.3 µM | MOLT-4 15 µM
